Reference: article PMC9849758, “Chemically diverse activity-based probes with unexpected inhibitory mechanisms targeting trypsin-like serine proteases” (Frontiers in Chemistry, 2023)
Entries after “also recorded” stand apart in the source; their conditions may differ. Where a name gives a salt, the structure may show the parent alone.

How the values were obtained:
Assay type in all cases: biochemical
[1] = molecular target: T1, CatG (Homo sapiens, UniProt P08311); assay: Kinetic progress curves (kapp, mechanism); set-up: Cathepsin G (cathepsin G human neutrophil, Sigma-Aldrich); purchased Sigma-Aldrich; host or cells: human neutrophil; details: for CatG mechanism of inhibition: defined by the progress curves: slow-binding (Rev.) or irreversible (Irrev.); for CatG kapp: apparent second-order rate constant from progress curves, mean ± SD
T1 sequence (P08311 21-255): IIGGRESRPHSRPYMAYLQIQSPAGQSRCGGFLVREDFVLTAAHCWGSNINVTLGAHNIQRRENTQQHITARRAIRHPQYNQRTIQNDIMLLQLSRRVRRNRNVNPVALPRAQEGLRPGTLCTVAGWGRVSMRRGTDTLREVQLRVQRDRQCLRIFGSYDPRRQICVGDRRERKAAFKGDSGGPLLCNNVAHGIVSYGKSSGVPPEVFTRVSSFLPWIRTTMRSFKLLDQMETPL
Method: Because the compounds described in this paper were previously described as irreversible inhibitors, the IC50 value is inversely correlated with the second-order rate constant of inactivation. For a simple pseudo-first-order inactivation process, the activity after incubation with inhibitor (vi) varies with the inhibitor concentration (i), as described in the following equation: vi=v0·e^−kit where v0 is the activity in the absence of an inhibitor, k is the second-order rate constant of inactivation, and t is the time. The inactivation rate constant was determined from the time course of inhibition.
Kinetic assays were performed in the following manner. The inhibitor was mixed with the substrate, and the buffer solution with the enzyme was added at the time zero. The progress curves show the release of pNA or AMC as a function of time. Initially, no inhibitor is bound to the enzyme, and the tangent to the progress curve (dA/dt) is proportional to the free enzyme concentration. The free enzyme concentration decreases over time due to inhibitor binding kinetics, as described above. Progress curves were recorded in pseudo-first-order conditions ([I]0>>[E]0) and with less than 10% conversion of the substrate during the entire time course. In these conditions, dA/dt decreases exponentially with time. The progress curves were fitted with the integrated rate equation with GraFit7 to yield a value for kobs, a pseudo-first-order rate constant. At=Ao+vs∙t+vi−vs∙1−e^−kobs∙t/kobs where At is the absorbance at time t, A0 is the absorbance at time zero, vi is the initial rate and vs is the velocity at the steady-state.
The apparent second-order rate constant (kapp) was calculated from the slope of the linear part of the plot of kobs vs. the inhibitor concentration ([I]0). In the case of competition between the inhibitor and the substrate, kapp is smaller than the “real” second-order rate constant k discussed above because a certain fraction of the enzyme is present as an enzyme-substrate complex. kapp depends on the substrate concentration used in the experiment, as described by [Lambeir et al. (1996)].
The apparent equilibrium constants were obtained from the following equations, vi/vo=1/1+I/K1; vS/vo=1/1+I/KI* where vi is the initial rate, vs is the steady-state velocity and vo is the uninhibited initial rate.

[2] = molecular target: T2, uPA (Homo sapiens, UniProt P00749); assay: Jump dilution, determination of inhibition type; details: inhibitor at 10 times IC50, 15 min, diluted 10-fold or 100-fold; Rev./Irrev.
T2 construct: purchased HYPHEN BioMed
Method: (§1) The dissociation of the enzyme-inhibitor complex was monitored by substrate hydrolysis over time ([Joossens et al., 2006]).
(§2) Because ABPs are designed to be irreversible serine protease inhibitors, the IC50 is exclusively used as a first discriminatory evaluation. When an inhibitor is irreversible, its IC50 value not only depends on the substrate and enzyme concentration but also on the time of incubation with the enzyme before the reaction is started by adding the substrate. […] The progress curve in the presence of an irreversible inhibitor will show final velocities equal to zero (Figure 6C). In contrast, for a reversible inhibitor, progress curves have a non-zero final steady-state velocity (Figure 6A) ([McWhirter, 2021]). To corroborate the inhibitory mechanism of the compounds, jump-dilution assays were performed. These use an inhibitor concentration of 10-fold the IC50 for the incubation, and a posteriori, the reaction mixture is diluted 10-fold or 100-fold before adding the substrate. In the case of an irreversible inhibitor, enzymatic activity is not regained (Figure 6D), whereas, in the case of a reversible compound, a slow release of the inhibitor and a gradual increase of the enzymatic activity rate is observed (Figure 6B) ([Copeland, 2013]; [McWhirter, 2021]). The jump-dilution assays confirmed the behavior described by the progress curves.
(§3) 2.2.2 Jump dilution results
(§4) Supplementary Table 2. Jump dilution of selected alkyne and desthiobiotin probes against a panel of trypsin-like serine proteases. […]
(§5) # R R DtBa 3 tryptase Thrombin uPA CatG
(§6) 32b H Alk Irrev. Irrev. Rev. Irrev. Rev.
(§7) 45b DtB Irrev. Irrev. Rev. N.D. N.D.
(§8) 33b Alk Irrev. Irrev. Rev. Irrev. Rev.
(§9) 46b Cl DtB Irrev. Irrev. Rev. N.D. N.D.
(§10) 34b H Alk Rev. Rev. Rev. Irrev. Rev.
(§11) 50b DtB Rev. Rev. Rev. Irrev. Rev.
(§12) 35b Alk Rev. Rev. Rev. Irrev. Rev.
(§13) 52b NHCOMe DtB Rev. Rev. Rev. Irrev. Rev.
(§14) 36b Alk Rev. Rev. Rev. Irrev. Rev.
(§15) 54b Cl DtB Rev. Rev. Rev. Irrev. Rev.
(§16) 37b Alk Irrev. Irrev. N.D. Irrev. Irrev.
(§17) 55b H DtB Irrev. Irrev. N.D. Irrev. Irrev.
(§18) 38b Alk Irrev. Irrev. N.D. Irrev. Irrev.
(§19) 56b NHCOMe DtB Irrev. Irrev. N.D. Irrev. Irrev.
(§20) 39b Alk Irrev. Irrev. N.D. Irrev. Rev.
(§21) 57b Cl DtB Irrev. Irrev. N.D. Irrev. Rev.
(§22) 41b H Alk Irrev. Irrev. Irrev. N.D. N.D.
(§23) 31b Pro-Lys H Alk Irrev. Irrev. Irrev. Irrev. N.D. a Alk: ABP precursor bearing an alkyne; DtB: desthiobiotin probe b Panel of serine proteases abbreviations: urokinase plasminogen activator (uPA), cathepsin G (catG) N.D.: IC50 is greater than 10µM, and jump dilution was not performed
(§24) 2.2.3 Progress curves and Jump dilution experiments
(§25) Kinetic assays were performed in the following manner. The inhibitor was mixed with the substrate, and the buffer solution with the enzyme was added at the time zero. The progress curves show the release of para-nitroaniline (pNA) or 7-amino-4-methyl coumarin (AMC) as a function of time.
(§26) To monitor the dissociation of the inhibitor-enzyme, aliquots of the enzyme were incubated at 37 °C without and with the inhibitor at a concentration 10 times higher than its IC 50. The enzyme […]
(§27) min, the aliquots were diluted 10-fold or 100-fold into the substrate concentration and assay buffer used for the IC50 determination. The dissociation of the enzyme-inhibitor complex was monitored by substrate hydrolysis over time. Blue lines represent the control where no inhibitor was present. Pink lines represent the assay with inhibitor.

[3] = molecular target: β-tryptase (Homo sapiens, UniProt P20231); assay: Jump dilution, determination of inhibition type; set-up: purchased EnzoLife Sciences; details: inhibitor at 10 times IC50, 15 min, diluted 10-fold or 100-fold; Rev./Irrev.
Method: as §1, §2, §3, §4, §5, §6, §7, §8, §9, §10, §11, §12, §13, §14, §15, §16, §17, §18, §19, §20, §21, §22, §23, §24, §25, §26, §27

Chain of β-tryptase (P20231 31-275): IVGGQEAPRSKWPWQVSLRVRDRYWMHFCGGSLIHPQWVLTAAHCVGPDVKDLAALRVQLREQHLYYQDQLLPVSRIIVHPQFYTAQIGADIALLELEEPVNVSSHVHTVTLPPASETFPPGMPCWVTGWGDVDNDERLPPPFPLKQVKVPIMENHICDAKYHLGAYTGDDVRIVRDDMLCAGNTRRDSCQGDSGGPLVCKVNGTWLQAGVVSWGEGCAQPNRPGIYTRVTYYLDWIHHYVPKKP

Compound	CatG mechanism of inhibition [1]	uPA jump dilution result [2]	β-tryptase jump dilution result [3]	CatG kapp [1]
C[C@@H]1NC(=O)N[C@@H]1CCCCCC(=O)NCCOCCOCCOCCn1cc(CCCOC(=O)NC(Cc2ccc(NC(=N)N)cc2)P(=O)(Oc2ccccc2)Oc2ccccc2)nn1 (stereo partly drawn) [50b, 3-(1-(18-((4R,5S)-5-methyl-2-oxoimidazolidin-4-yl)-13-oxo-3,6,9-trioxa-12-azaoctadecyl)-1H-1,2,3-triazol-4-yl)propyl (1-(diphenoxyphosphoryl)-2-(4-guanidinophenyl)ethyl)carbamate trifluoroacetate salt]	* ^d Rev.	Irrev.	Rev.	
C#CCCCOC(=O)NC(CCCNC(=N)N)P(=O)(Oc1ccccc1)Oc1ccccc1 (stereo not drawn) [32b]	* ^d Rev.	Irrev.	Irrev.	
CC(=O)Nc1ccc(OP(=O)(Oc2ccc(NC(C)=O)cc2)C(NC(=O)OCCCc2cn(CCOCCOCCOCCNC(=O)CCCCC[C@H]3NC(=O)N[C@H]3C)nn2)c2ccc(NC(=N)N)cc2)cc1 (stereo partly drawn) [56b]	Irrev.	Irrev.	Irrev; also recorded: Irreversible	420 ± 37 M⁻¹ s⁻¹
C[C@@H]1NC(=O)N[C@@H]1CCCCCC(=O)NCCOCCOCCOCCn1cc(CCCOC(=O)NC(Cc2ccc(NC(=N)N)cc2)P(=O)(Oc2ccc(Cl)cc2)Oc2ccc(Cl)cc2)nn1 (stereo partly drawn) [54b]	* ^d Rev.	Irrev.	Rev.	
C#CCCCOC(=O)NC(Cc1ccc(NC(=N)N)cc1)P(=O)(Oc1ccccc1)Oc1ccccc1 (stereo not drawn) [34b]	* ^d Rev.	Irrev.	Rev.	
C#CCCCOC(=O)NC(CCCNC(=N)N)P(=O)(Oc1ccc(Cl)cc1)Oc1ccc(Cl)cc1 (stereo not drawn) [33b]	* ^d Rev.	Irrev.	Irrev.	
C[C@@H]1NC(=O)N[C@@H]1CCCCCC(=O)NCCOCCOCCOCCn1cc(CCCOC(=O)NC(CCCNC(=N)N)P(=O)(Oc2ccc(Cl)cc2)Oc2ccc(Cl)cc2)nn1 (stereo partly drawn) [46b]			Irrev.	
C[C@@H]1NC(=O)N[C@@H]1CCCCCC(=O)NCCOCCOCCOCCn1cc(CCCOC(=O)NC(c2ccc(NC(=N)N)cc2)P(=O)(Oc2ccc(Cl)cc2)Oc2ccc(Cl)cc2)nn1 (stereo partly drawn) [57b]	reversibly and Rev.	Irrev.	Irrev.	11 × 10^2 ± 117 M^−1 s^−1
CC(=O)Nc1ccc(OP(=O)(Oc2ccc(NC(C)=O)cc2)C(Cc2ccc(NC(=N)N)cc2)NC(=O)OCCCc2cn(CCOCCOCCOCCNC(=O)CCCCC[C@H]3NC(=O)N[C@H]3C)nn2)cc1 (stereo partly drawn) [52b]	* ^d Rev.	Irrev.	Rev. and Reversible	
C#CCCCOC(=O)NC(c1ccc(NC(=N)N)cc1)P(=O)(Oc1ccc(Cl)cc1)Oc1ccc(Cl)cc1 (stereo not drawn) [39b, Pent-4-yn-1-yl ((bis(4-chlorophenoxy)phosphoryl)(4-guanidinophenyl)methyl)carbamate]	reversibly and Rev.	Irrev.	Irrev.	
C#CCCCOC(=O)NC(Cc1ccc(NC(=N)N)cc1)P(=O)(Oc1ccc(NC(C)=O)cc1)Oc1ccc(NC(C)=O)cc1 (stereo not drawn) [35b]	Rev.	Irrev.	Rev.	477 ± 67 M⁻¹ s⁻¹
C#CCCCOC(=O)NC(Cc1ccc(NC(=N)N)cc1)P(=O)(Oc1ccc(Cl)cc1)Oc1ccc(Cl)cc1 (stereo not drawn) [36b]	* ^d Rev.	Irrev.	Rev.	
C#CCCCOC(=O)NC(C1CCN(C(=N)N)CC1)P(=O)(Oc1ccccc1)Oc1ccccc1 (stereo not drawn) [41b]			Irrev.	
C#CCCCOC(=O)NC(c1ccc(NC(=N)N)cc1)P(=O)(Oc1ccccc1)Oc1ccccc1.O=C(O)C(F)(F)F (stereo not drawn) [37b, Pent-4-yn-1-yl ((diphenoxyphosphoryl)(4-guanidinophenyl)methyl)carbamate trifluoroacetate salt]	Irrev.	Irrev.	Irrev.	582 ± 2 M⁻¹ s⁻¹
C[C@@H]1NC(=O)N[C@@H]1CCCCCC(=O)NCCOCCOCCOCCn1cc(CCCOC(=O)NC(CCCNC(=N)N)P(=O)(Oc2ccccc2)Oc2ccccc2)nn1 (stereo partly drawn) [45b]			Irrev.	
C#CCCCOC(=O)NC(c1ccc(NC(=N)N)cc1)P(=O)(Oc1ccc(NC(C)=O)cc1)Oc1ccc(NC(C)=O)cc1 (stereo not drawn) [38b, Pent-4-yn-1-yl ((bis(4-acetamidophenoxy)phosphoryl)(4-guanidinophenyl)methyl) carbamate]	Irrev.	Irrev.	Irrev.	14 × 10^2 ± 52 M^−1 s^−1
C[C@@H]1NC(=O)N[C@@H]1CCCCCC(=O)NCCOCCOCCOCCn1cc(CCCOC(=O)NC(c2ccc(NC(=N)N)cc2)P(=O)(Oc2ccccc2)Oc2ccccc2)nn1 (stereo partly drawn) [55b]	Irrev.	Irrev.	Irrev.	301 ± 85 M⁻¹ s⁻¹
